We go through two compounds from patent EP3909646A1 (priority 2020, dated 2021).

One series relates to ACE2. In kind it is cell-based, human.
A further series has as its system TMPRSS2. In kind it is cell-based, human. As to conditions: Fig.4E.
Series [1] concerns primary NHBE. It is filed as cell-based, human.
The test system of the next series is SARS-CoV-2. It is filed as cell-based.
Series [2] deals with primary NHBE. As to conditions: uninfected primary NHBE, different doses titrated, Fig.1C.

“Also recorded” adds a separate entry of the source.

For `C[C@]12CCC(=O)C=C1CC[C@@H]1[C@@H]2[C@@H](O)C[C@@]2(C)[C@H]1CC[C@]2(O)C(=O)CO` [hydrocortisone], in the series with ACE2, the “ACE2 gene expression (microarray, confirmed by qPCR)” value is “upregulation of ACE2 and TMPRSS2 on the transcriptional level of uninfected cells”; the “ACE2 gene expression (qPCR)” value is reported as “did not change”. Further, the “TMPRSS2 gene expression (microarray, confirmed by qPCR)” value in the series with TMPRSS2 (10 µM hydrocortisone, uninfected cells) is “upregulation of ACE2 and TMPRSS2 on the transcriptional level of uninfected cells”. Also, the “TMPRSS2 gene expression (qPCR)” value in the series with TMPRSS2 (24h pre-treatment 10 µM hydrocortisone, uninfected and virus-infected NHBE, with or without IFN-γ) is “still enhanced TMPRSS2 expression in both, uninfected and virus-infected NHBE”. Also, in the series on primary NHBE [1], the “genes that may support the cytokine storm (gene expression)” value was “not significantly influenced”; the “type I interferons IFNB1 and IFNE and type III interferons such as IFNL3 (gene expression)” value is given as “even slightly enhanced”. In addition, the APOBEC3A gene expression result in the series with primary NHBE [1] (Fig.4A) is recorded as “even increased”. The “known and potential virus entry receptors (gene expression)” value in the series on primary NHBE [1] (Fig.4C) was “rather enhances receptors, like TMPRSS2, 11B and 11E proteins”. For the same compound, the “genes upregulated by SARS-CoV-2-infection, but downregulated by drug” value with primary NHBE [1] (Venn diagram, Fig.3E) is on record as 300 genes. Moreover, the “genes reduced by SARS-CoV-2-infection, but increased by drug” value in the series on primary NHBE [1] (Venn diagram, Fig.7C) stood at 198 genes. Moreover, the “global gene expression changes” value with primary NHBE [1] (icatibant 1 µM or hydrocortisone 10 µM, volcano plots, Fig.3D) was “almost balanced relationship between suppression and induction of gene expression”. In the series on primary NHBE [1] (in general, Fig.4A), the “antiviral epithelial response (gene expression)” value was “changes of the antiviral epithelial response were not induced”. Besides, the “antiviral response genes significantly downregulated” value in the series with primary NHBE [1] (over all conditions, Fig.8A) is “significantly reduced DNAJC3, CREBZF, GPAM, BNIP3L and FAM111A”. Moreover, the “transcripts regulated by both, hydrocortisone and icatibant” value in the series with primary NHBE [1] (overlap of the two drugs, majority long non-coding RNAs, Fig.3E) is reported as 86 transcripts. In the series with SARS-CoV-2, the “virus titers / infectious viral particles in supernatant (plaque forming units)” value is recorded as “no adverse effect on the virus titers; also recorded: did not reduce virus titers”.

Regarding `NC(N)=NCCC[C@@H](N)C(=O)N[C@@H](CCCN=C(N)N)C(=O)N1CCC[C@H]1C(=O)N1C[C@H](O)C[C@H]1C(=O)NCC(=O)N[C@@H](Cc1cccs1)C(=O)N[C@@H](CO)C(=O)N1Cc2ccccc2C[C@@H]1C(=O)N1[C@H](C(=O)N[C@@H](CCCN=C(N)N)C(=O)O)C[C@@H]2CCCC[C@@H]21` [icatibant], in the series on primary NHBE [2], the “potential cytotoxicity (LDH)” value is given as “no toxic effects in NHBE cell cultures, but even exhibits a cell-protecting effect”. Besides, the “infection-mediated cytotoxicity (LDH), rescue” value in the series on SARS-CoV-2 infected NHBE (1 µM icatibant added 6h post-inoculation, Fig.5F) is on record as “significantly reduced”. Further, in the series with SARS-CoV-2 infected NHBE (24h pre-treatment 1 µM icatibant, then 24h SARS-CoV-2 inoculation, n=12, Fig.5E), the “infection-mediated cytotoxicity (LDH)” value is “significantly reduced”.
